Laboratory results as given in patent EP4722213A1, “NITROGEN-CONTAINING FUNCTIONAL GROUP-SUBSTITUTED PYRIDAZINOPYRIDONE DERIVATIVE AND USE THEREOF” (Sichuan Huiyu Pharmaceutical Co., Ltd., priority 2023, dated 2024).
pIC50: −log10 of the molar value.

Biological target: T1, SOS1 (Homo sapiens, UniProt Q07889)
T1 sequence (Q07889 1-1333): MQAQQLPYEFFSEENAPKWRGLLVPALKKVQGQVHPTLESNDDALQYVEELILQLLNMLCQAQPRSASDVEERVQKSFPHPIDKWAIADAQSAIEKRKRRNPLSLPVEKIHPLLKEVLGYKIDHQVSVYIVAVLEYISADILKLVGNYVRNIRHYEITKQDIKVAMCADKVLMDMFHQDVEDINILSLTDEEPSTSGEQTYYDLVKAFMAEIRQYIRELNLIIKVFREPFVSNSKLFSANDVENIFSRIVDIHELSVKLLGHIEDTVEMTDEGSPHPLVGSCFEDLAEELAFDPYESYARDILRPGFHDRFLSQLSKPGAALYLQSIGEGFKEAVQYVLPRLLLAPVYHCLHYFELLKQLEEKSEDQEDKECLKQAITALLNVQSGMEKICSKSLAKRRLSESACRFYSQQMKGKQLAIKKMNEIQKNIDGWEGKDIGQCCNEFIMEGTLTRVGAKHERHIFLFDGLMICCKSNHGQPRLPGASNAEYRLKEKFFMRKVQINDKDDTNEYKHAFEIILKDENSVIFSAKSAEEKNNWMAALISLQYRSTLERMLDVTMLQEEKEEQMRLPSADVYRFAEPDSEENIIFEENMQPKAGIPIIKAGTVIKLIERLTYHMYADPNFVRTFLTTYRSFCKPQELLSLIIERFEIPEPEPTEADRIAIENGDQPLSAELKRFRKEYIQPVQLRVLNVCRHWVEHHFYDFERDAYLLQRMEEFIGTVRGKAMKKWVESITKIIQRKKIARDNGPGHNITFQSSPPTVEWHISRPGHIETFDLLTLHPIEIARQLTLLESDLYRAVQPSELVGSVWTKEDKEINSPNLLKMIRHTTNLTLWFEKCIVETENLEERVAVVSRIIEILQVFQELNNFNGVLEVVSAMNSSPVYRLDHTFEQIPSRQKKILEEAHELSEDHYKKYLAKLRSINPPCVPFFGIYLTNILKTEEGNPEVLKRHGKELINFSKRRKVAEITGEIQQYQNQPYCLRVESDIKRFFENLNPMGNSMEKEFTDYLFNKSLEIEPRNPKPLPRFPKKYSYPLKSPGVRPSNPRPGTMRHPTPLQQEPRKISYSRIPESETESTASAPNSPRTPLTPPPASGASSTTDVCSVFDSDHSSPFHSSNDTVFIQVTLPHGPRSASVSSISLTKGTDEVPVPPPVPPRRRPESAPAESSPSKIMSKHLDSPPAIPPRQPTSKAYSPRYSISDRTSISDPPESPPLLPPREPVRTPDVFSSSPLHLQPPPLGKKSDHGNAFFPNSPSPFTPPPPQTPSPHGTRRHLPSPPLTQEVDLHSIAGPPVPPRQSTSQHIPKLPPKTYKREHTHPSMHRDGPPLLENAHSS
Assay: biochemical

Row | SMILES | pIC50
1 | Cc1c([C@@H](C)Nc2nnc(N(C)C)c3cc(=O)n(C4(C)CC4)cc23)cccc1C(F)(F)F [Example 64, (R)-1-(dimethylamino)-4-((1-(2-methyl-3-(trifluoromethyl)phenyl)ethyl)amino)-6-(1-methylcyclopropyl) pyrido[3,4-d]pyridazin-7(6H)-one] | 7.97
2 | Cc1c([C@@H](C)Nc2nnc(N3CCC(F)(F)CC3)c3cc(=O)n(C4(C)CC4)cc23)cccc1C(F)(F)F [Example 65, (R)-1-(4,4-difluoropiperidin-1-yl)-4-((1-(2-methyl-3-(trifluoromethyl)phenyl)ethyl)amino)-6-(1-methylcyclopropyl) pyrido[3,4-d]pyridazin-7(6H)-one] | 7.21
3 | Cc1c([C@@H](C)Nc2nnc(N3CC(F)(F)C3)c3cc(=O)n(C4(C)CC4)cc23)cccc1C(F)(F)F [Example 66, (R)-1-(3,3-difluoroazetidin-1-yl)-4-((1-(2-methyl-3-(trifluoromethyl)phenyl)ethyl)amino)-6-(1-methylcyclopropyl) pyrido[3,4-d]pyridazin-7(6H)-one] | 7.51
4 | Cc1c([C@@H](C)Nc2nnc(N3CCC(F)(F)C3)c3cc(=O)n(C4(C)CC4)cc23)cccc1C(F)(F)F [Example 67, (R)-1-(3,3-difluoropyrrolidin-1-yl)-4-((1-(2-methyl-3-(trifluoromethyl)phenyl)ethyl)amino)-6-(1-methylcyclopropyl) pyrido[3,4-d]pyridazin-7(6H)-one] | 7.54
5 | Cc1c([C@@H](C)Nc2nnc(N3CCS(=O)(=O)CC3)c3cc(=O)n(C4(C)CC4)cc23)cccc1C(F)(F)F [Example 68, (R)-1-(1,1-dioxidothiomorpholino)-4-((1-(2-methyl-3-(trifluoromethyl)phenyl)ethyl)amino)-6-(1-methylcyclopropyl) pyrido[3,4-d]pyridazin-7(6H)-one] | 7.72
6 | Cc1c(C#N)cccc1[C@@H](C)Nc1nnc(N2CCC(F)(F)C2)c2cc(=O)n(C3(C)CC3)cc12 [Example 69, (R)-3-(1-((1-(3,3-difluoropyrrolidin-1-yl)-6-(1-methylcyclopropyl)-7-oxo-6,7-dihydropyrido[3,4-d]pyridazin-4-yl)amino)ethyl)-2-methylbenzonitrile] | 7.47
7 | Cc1c(C#N)cccc1[C@@H](C)Nc1nnc(N2CCC2)c2cc(=O)n(C3(C)CC3)cc12 [Example 70, (R)-3-(1-((1-(azetidin-1-yl)-6-(1-methylcyclopropyl)-7-oxo-6,7-dihydropyrido[3,4-d]pyridazin-4-yl)amino)ethyl)-2-methylbenzonitrile] | 8.17
8 | CCN(CC)c1nnc(N[C@H](C)c2cccc(C#N)c2C)c2cn(C3(C)CC3)c(=O)cc12 [Example 71, (R)-3-(1-((1-(diethylamino)-6-(1-methylcyclopropyl)-7-oxo-6,7-dihydropyrido[3,4-d]pyridazin-4-yl)amino)ethyl)-2-methylbenzonitrile] | 7.51
9 | Cc1c(C#N)cccc1[C@@H](C)Nc1nnc(N2CCS(=O)(=O)CC2)c2cc(=O)n(C3(C)CC3)cc12 [Example 72, (R)-3-(1-((1-(1,1-dioxidothiomorpholino)-6-(1-methylcyclopropyl)-7-oxo-6,7-dihydropyrido[3,4-d]pyridazin-4-yl)amino)ethyl)-2-methylbenzonitrile] | 7.30
10 | C[C@@H](Nc1nnc(N(C)C)c2cc(=O)n(C3CC3)cc12)c1cccc(C(F)F)c1F [Example 76, (R)-6-cyclopropyl-4-((1-(3-(difluoromethyl)-2-fluorophenyl)ethyl)amino)-1-(dimethylamino) pyrido[3,4-d]pyridazin-7(6H)-one] | 8.04
11 | CC(=O)N1CCN(c2nnc(N[C@H](C)c3cccc(C(F)F)c3F)c3cn(C4(C)CC4)c(=O)cc23)CC1 [Example 79, (R)-1-(4-acetylpiperazin-1-yl)-4-((1-(3-(difluoromethyl)-2-fluorophenyl)ethyl)amino)-6-(1-methylcyclopropyl)pyrido[3,4-d]pyridazin-7(6H)-one] | 7.90
12 | Cc1c(C#N)cccc1[C@@H](C)Nc1nnc(N2CCN(C)CC2)c2cc(=O)n(C3(C)CC3)cc12 [Example 82, (R)-2-methyl-3-(1-((6-(1-methylcyclopropyl)-1-(4-methylpiperazin-1-yl)-7-oxo-6,7-dihydropyrido[3,4-d]pyridazin-4-yl)amino)ethyl)benzonitrile] | 8.05
13 | CNc1nnc(N[C@H](C)c2cccc(C#N)c2C)c2cn(C3(C)CC3)c(=O)cc12 [Example 83, (R)-2-methyl-3-(1-((1-(methylamino)-6-(1-methylcyclopropyl)-7-oxo-6,7-dihydropyrido[3,4-d]pyridazin-4-yl)amino)ethyl)benzonitrile] | 8.25
14 | Cc1c(C#N)cccc1[C@@H](C)Nc1nnc(N(C)C)c2cc(=O)n(C3(C)CC3)cc12 [Example 84, (R)-3-(1-((1-(dimethylamino)-6-(1-methylcyclopropyl)-7-oxo-6,7-dihydropyrido[3,4-d]pyridazin-4-yl)amino)ethyl)-2-methylbenzonitrile] | 7.73
15 | Cc1c(C#N)cccc1[C@@H](C)Nc1nnc(N2CCC[C@H]2C)c2cc(=O)n(C3(C)CC3)cc12 [Example 85, 2-methyl-3-((R)-1-((6-(1-methylcyclopropyl)-1-((R)-2-methylpyrrolidin-1-yl)-7-oxo-6,7-dihydropyrido[3,4-d]pyridazin-4-yl)amino)ethyl)benzonitrile] | 7.93
16 | Cc1c([C@@H](C)Nc2nnc(N3CCN(C)CC3)c3cc(=O)n(C4CC4)cc23)cccc1C(F)(F)F [Example 86, (R)-6-cyclopropyl-4-((1-(2-methyl-3-(trifluoromethyl)phenyl)ethyl)amino)-1-(4-methylpiperazin-1-yl)pyrido[3,4-d]pyridazin-7(6H)-one] | 8.44
17 | Cc1c(C#N)cccc1[C@@H](C)Nc1nnc(N2CCN(C)CC2)c2cc(=O)n(C3CC3)cc12 [Example 87, (R)-3-(1-((6-cyclopropyl-1-(4-methylpiperazin-1-yl)-7-oxo-6,7-dihydropyrido[3,4-d]pyridazin-4-yl)amino)ethyl)-2-methylbenzonitrile] | 8.24
18 | Cc1c([C@@H](C)Nc2nnc(N3CCN(C4CC4)CC3)c3cc(=O)n(C4(C)CC4)cc23)cccc1C(F)(F)F [Example 92, (R)-1-(4-cyclopropylpiperazin-1-yl)-4-((1-(2-methyl-3-(trifluoromethyl)phenyl)ethyl)amino)-6-(1-methylcyclopropyl) pyrido[3,4-d]pyridazin-7(6H)-one] | 7.99
19 | Cc1c([C@@H](C)Nc2nnc(N3CCN(CC4CC4)CC3)c3cc(=O)n(C4(C)CC4)cc23)cccc1C(F)(F)F [Example 93, (R)-1-(4-(cyclopropylmethyl)piperazin-1-yl)-4-((1-(2-methyl-3-(trifluoromethyl)phenyl)ethyl)amino)-6-(1-methylcyclopropyl) pyrido[3,4-d]pyridazin-7(6H)-one] | 8.27
20 | Cc1c([C@@H](C)Nc2nnc(N3CCN(C4CCC4)CC3)c3cc(=O)n(C4(C)CC4)cc23)cccc1C(F)(F)F [Example 94, (R)-1-(4-cyclobutylpiperazin-1-yl)-4-((1-(2-methyl-3-(trifluoromethyl)phenyl)ethyl)amino)-6-(1-methylcyclopropyl) pyrido[3,4-d]pyridazin-7(6H)-one] | 8.14
